# Literature values, collected in patent US20150297607A1, “Tricyclic Lactams for Use in the Protection of Normal Cells During Chemotherapy” (G1 Therapeutics, Inc., priority 2014, published 2015).
# Details: clinical trial; Grade 3/4 neutropenia and leukopenia
structure (smiles),measurement,value
"CC(=O)c1c(C)c2cnc(Nc3ccc(N4CCNCC4)cn3)nc2n(C2CCCC2)c1=O [PD0332991, 6-acetyl-8-cyclopentyl-5-methyl-2-(5-piperazin-1-yl-pyridin-2-ylammino)-8H-pyrido-[2,3-d]-pyrimidin-7-one]",patients requiring a dose interruption,71%
same,patients requiring a dose reduction,35%
